Experimental data from patent US20240093198A1, “TGF-BETA THERAPEUTICS FOR AGE DISEASE” (GMP BIOTECHNOLOGY LIMITED, priority 2021, published 2024).
Converted amounts (≈) assume the structure as drawn.

Tests used:
in vitro = conditions: African green monkey
SARS-COV-2 USA_WA1/2020 [1] = test: microbe, parasite or virus in culture; conditions: Severe acute respiratory syndrome coronavirus 2, Vero 76, read-out: EC50: 50% effective antiviral concentration
SARS-COV-2 USA_WA1/2020 [2] = conditions: Vero 76 cells
SARS-COV-2 = conditions: from Wang M et al., Cell Res. 2020; cited from earlier work
[3] = by day 28, p<0.0001, not with SOC alone

C[C@@H]1CC[C@H]2[C@@H](C)C(=O)O[C@@H]3O[C@@]4(C)CC[C@@H]1[C@]32OO4 [Artemisinin]
CC50 (in vitro): 61 µg/mL (≈ 216 µM) | EC50 (SARS-COV-2 USA_WA1/2020 [1]): 0.45 µg/mL (≈ 1.59 µM) | Safety profile (COVID-19; 80 patients on Artemisinin): very favorable safety profile | WHO severity scale (COVID-19; Day 4 and Day 5, p=0.0045 and p=0.0370): significant improvement over SOC | Recovery of patients with mild-moderate COVID-19 across symptoms (fever, sore throat, dry cough, ache) (COVID-19; added to the SOC): accelerated the recovery | Decline in body temperature in comparison to SOC arm (COVID-19; by day 2): faster and higher | Improvement in respiratory rate in comparison to SOC arm (COVID-19; by day 5): faster and higher | Improvement in mean SpO2 level in comparison to SOC arm (COVID-19; by day 28 (end of study), p=0.029): significantly higher | O2 sat (COVID-19; [3]): fully recovered | respiratory rate (COVID-19; [3]): fully recovered | Artemisinin-related adverse events (the only ones) (COVID-19; human, in vivo): transient mild rash and mild hypertension | Changes in biochemistry or hematology parameters (COVID-19; human, in vivo): no clinically significant changes | Efficacy in words (COVID-19; human, in vivo): effective in treating subjects with mild and moderate COVID-19 | Safety and tolerability (COVID-19; human, in vivo): safe and well-tolerated | Reduction of WHO score on the first few doses (COVID-19; p=0.0043, n=56 PulmoHeal+SOC vs n=25 SOC): Almost all of WHO-4 patients achieved a reduction WHO-3 | Long term lung functions (FIG. 4) (COVID-19; patients with confirmed SARS-CoV-2 infection): restored long term lung functions | SI = CC50/EC50 (Safety Index) (SARS-COV-2 USA_WA1/2020 [2]): 140

CCC(CC)COC(=O)[C@H](C)N[P@](=O)(OC[C@H]1O[C@@](C#N)(c2ccc3c(N)ncnn23)[C@H](O)[C@@H]1O)Oc1ccccc1 [Remdesivir]
CC50 (SARS-COV-2): > 100 µM
